Test: Solubility of sirolimus in solvents / dispersion media
Assay type: physicochemical
Method: Solution 524 is a homogeneous mixture in which therapeutic substance 112 dissolves within a solvent or a solvent mixture. In one embodiment, solution 524 includes a high-capacity solvent 528 which is an organic solvent that has a high capacity to dissolve therapeutic substance 112. High capacity as utilized herein is defined as an ability to dissolve therapeutic substance 112 at concentrations greater than 500 mg of substance per milliliter of solvent. Examples of high capacity drug dissolving solvents for sirolimus and similar substances include but are not limited to tetrahydrofuran (THF), di-chloromethane (DCM), chloroform, and di-methyl-sulfoxide (DMSO). In addition to the high-capacity solvent, solution 524 may include an excipient 526 in order to assist in drug elution. In one embodiment, excipient 526 may be a surfactant such as but not limited to sorbitan fatty acid esters such as sorbitan monooleate and sorbitan monolaurate, polysorbates such as polysorbate 20, polysorbate 60, and polysorbate 80, cyclodextrins such as 2-hydroxypropyl-beta-cyclodextrin and 2,6-di-O-methyl-beta-cyclodextrin, sodium dodecyl sulfate, octyl glucoside, and low molecular weight poly(ethylene glycol)s. In another embodiment, excipient 526 may be a hydrophilic agent such as but not limited to salts such as sodium chloride and other materials such as urea, citric acid, and ascorbic acid. […]

solubility in hexane: insoluble
Compound: CO[C@H]1C[C@@H]2CC[C@@H](C)[C@@](O)(O2)C(=O)C(=O)N2CCCC[C@H]2C(=O)O[C@H]([C@H](C)C[C@@H]2CC[C@@H](O)[C@H](OC)C2)CC(=O)[C@H](C)/C=C(\C)[C@@H](O)[C@@H](OC)C(=O)[C@H](C)C[C@H](C)/C=C/C=C/C=C/1C [sirolimus]
